Patent US11358949B2, “Carbamate and urea compounds as multikinase inhibitors” (ANGEX PHARMACEUTICAL, INC., priority 2017, dated 2022)

Columns and labels:
AXL = biological target: T1, AXL (Homo sapiens, UniProt P30530); assay: HotSpot Kinase Assay, AXL
T1 sequence (P30530 26-894): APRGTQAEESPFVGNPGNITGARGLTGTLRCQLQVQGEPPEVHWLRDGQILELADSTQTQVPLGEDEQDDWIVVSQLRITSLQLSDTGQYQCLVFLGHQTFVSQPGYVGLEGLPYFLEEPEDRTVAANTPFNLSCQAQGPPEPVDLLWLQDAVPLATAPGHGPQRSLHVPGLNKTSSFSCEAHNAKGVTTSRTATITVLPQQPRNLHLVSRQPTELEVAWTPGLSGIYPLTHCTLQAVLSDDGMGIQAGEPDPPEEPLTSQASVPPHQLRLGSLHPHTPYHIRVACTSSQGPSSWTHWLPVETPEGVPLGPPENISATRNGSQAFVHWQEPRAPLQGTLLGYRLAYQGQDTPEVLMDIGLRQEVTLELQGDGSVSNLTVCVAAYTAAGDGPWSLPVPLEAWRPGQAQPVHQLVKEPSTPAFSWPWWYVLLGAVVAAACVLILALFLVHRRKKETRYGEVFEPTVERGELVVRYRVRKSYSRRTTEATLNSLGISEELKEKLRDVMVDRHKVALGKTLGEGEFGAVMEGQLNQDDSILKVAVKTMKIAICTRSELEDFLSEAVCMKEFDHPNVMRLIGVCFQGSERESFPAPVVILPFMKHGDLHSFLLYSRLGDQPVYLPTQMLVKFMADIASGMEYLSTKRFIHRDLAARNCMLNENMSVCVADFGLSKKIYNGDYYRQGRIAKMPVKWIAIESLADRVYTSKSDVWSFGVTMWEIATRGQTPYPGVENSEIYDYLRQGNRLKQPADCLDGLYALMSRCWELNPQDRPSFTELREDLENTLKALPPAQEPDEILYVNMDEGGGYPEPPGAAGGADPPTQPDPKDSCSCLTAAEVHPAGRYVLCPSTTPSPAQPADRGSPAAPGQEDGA

FMS = FMS (Homo sapiens, UniProt P07333); assay: HotSpot Kinase Assay, FMS
Procedure: (§1) Specifically, for each reaction, kinase and substrate were mixed in a pH 7.5 buffer containing 20 mM HEPES, 10 mM MgCl2, 1 mM EGTA [Ethylene glycol-bis(2-aminoethylether)-N,N,N′,N′-tetraacetic acid], 0.02% Brij35, 0.02 mg/mL BSA (Bovine Serum Albumin), 0.1 mM Na3VO4, 2 mM DTT, and 1% DMSO. Compounds were then added to each reaction mixture. After a 20-min incubation, ATP (Sigma-Aldrich) and [γ-^33P] ATP (PerkinElmer) were added at a final total concentration of 100 μM. Reactions were carried out at room temperature for 2 hours and spotted onto P81 ion exchange cellulose chromatography paper (Whatman). […] The percent remaining kinase activity relative to a vehicle-containing (DMSO) kinase reaction was calculated for each kinase/inhibitor pair. […] IC50 values were calculated using Prism 5 (GraphPad).

DDR1 = DDR1 (Homo sapiens, UniProt Q08345); assay: HotSpot Kinase Assay, DDR1
Procedure: as §1

c-Kit = c-Kit (Homo sapiens, UniProt P10721); assay: HotSpot Kinase Assay, c-Kit
Procedure: as §1

c-MER = biological target: T2, c-MER (Homo sapiens, UniProt Q12866); assay: HotSpot Kinase Assay, c-MER
T2 sequence (Q12866 21-999): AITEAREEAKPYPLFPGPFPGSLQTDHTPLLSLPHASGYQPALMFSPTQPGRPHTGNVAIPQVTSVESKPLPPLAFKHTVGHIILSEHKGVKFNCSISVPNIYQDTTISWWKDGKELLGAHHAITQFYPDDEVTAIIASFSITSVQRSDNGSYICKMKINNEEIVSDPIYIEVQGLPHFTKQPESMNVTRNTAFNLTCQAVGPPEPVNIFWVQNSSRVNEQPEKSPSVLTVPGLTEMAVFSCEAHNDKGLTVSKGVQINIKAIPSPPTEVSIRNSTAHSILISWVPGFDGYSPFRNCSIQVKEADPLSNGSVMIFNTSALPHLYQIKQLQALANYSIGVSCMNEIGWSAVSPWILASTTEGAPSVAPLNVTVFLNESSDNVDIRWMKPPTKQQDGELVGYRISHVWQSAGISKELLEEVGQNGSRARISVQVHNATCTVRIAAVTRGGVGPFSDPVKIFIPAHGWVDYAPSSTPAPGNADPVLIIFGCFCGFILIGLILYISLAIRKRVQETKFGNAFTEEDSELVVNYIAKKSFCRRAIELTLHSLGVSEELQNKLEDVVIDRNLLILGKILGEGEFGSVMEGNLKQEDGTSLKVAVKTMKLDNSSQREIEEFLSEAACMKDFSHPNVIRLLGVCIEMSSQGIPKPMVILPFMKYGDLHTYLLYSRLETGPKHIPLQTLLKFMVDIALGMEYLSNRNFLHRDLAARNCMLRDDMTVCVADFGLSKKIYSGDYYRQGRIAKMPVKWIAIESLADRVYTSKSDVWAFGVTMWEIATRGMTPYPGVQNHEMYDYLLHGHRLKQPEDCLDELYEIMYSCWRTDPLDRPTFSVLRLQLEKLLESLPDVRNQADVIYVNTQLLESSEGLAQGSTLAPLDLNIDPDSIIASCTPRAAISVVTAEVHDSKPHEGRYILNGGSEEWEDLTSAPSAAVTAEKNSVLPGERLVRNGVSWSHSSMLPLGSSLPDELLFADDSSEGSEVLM

c-MET = c-MET (Homo sapiens, UniProt P08581); assay: HotSpot Kinase Assay, c-MET
Procedure: as §1

EPHA2 = EPHA2 (Homo sapiens, UniProt P29317); assay: HotSpot Kinase Assay, EPHA2
Procedure: as §1

LOK/STK10 = LOK/STK10 (Homo sapiens, UniProt O94804); assay: HotSpot Kinase Assay, LOK/STK10
Procedure: as §1

TYRO3/SKY = biological target: T3, TYRO3/SKY (Homo sapiens, UniProt Q06418); assay: HotSpot Kinase Assay, TYRO3/SKY
T3 sequence (Q06418 41-890): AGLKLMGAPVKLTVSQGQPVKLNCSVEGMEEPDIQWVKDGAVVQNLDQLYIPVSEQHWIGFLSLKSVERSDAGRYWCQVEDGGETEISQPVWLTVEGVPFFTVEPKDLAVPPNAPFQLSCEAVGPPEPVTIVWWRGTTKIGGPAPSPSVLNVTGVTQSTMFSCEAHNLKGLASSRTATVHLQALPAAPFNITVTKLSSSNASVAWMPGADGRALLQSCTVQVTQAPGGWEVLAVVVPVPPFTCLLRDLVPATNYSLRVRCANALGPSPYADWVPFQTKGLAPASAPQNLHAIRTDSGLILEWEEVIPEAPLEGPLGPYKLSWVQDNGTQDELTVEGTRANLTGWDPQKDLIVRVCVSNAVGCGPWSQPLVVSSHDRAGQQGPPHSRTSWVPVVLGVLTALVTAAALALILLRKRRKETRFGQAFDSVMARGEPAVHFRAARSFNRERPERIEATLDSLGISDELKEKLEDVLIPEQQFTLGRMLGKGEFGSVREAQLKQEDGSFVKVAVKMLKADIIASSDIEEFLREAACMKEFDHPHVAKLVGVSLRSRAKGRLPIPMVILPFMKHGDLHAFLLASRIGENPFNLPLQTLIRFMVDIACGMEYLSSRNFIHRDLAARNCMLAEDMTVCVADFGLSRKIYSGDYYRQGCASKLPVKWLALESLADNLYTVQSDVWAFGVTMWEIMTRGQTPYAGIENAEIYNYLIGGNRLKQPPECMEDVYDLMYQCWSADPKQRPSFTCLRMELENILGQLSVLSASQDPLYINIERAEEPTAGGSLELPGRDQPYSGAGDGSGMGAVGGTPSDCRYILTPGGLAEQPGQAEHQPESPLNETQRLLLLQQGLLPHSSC
Procedure: as §1

KDR/VEGFR2 = KDR/VEGFR2 (Homo sapiens, UniProt P35968); assay: HotSpot Kinase Assay, KDR/VEGFR2
KDR/VEGFR2, sequence (P35968 20-1356): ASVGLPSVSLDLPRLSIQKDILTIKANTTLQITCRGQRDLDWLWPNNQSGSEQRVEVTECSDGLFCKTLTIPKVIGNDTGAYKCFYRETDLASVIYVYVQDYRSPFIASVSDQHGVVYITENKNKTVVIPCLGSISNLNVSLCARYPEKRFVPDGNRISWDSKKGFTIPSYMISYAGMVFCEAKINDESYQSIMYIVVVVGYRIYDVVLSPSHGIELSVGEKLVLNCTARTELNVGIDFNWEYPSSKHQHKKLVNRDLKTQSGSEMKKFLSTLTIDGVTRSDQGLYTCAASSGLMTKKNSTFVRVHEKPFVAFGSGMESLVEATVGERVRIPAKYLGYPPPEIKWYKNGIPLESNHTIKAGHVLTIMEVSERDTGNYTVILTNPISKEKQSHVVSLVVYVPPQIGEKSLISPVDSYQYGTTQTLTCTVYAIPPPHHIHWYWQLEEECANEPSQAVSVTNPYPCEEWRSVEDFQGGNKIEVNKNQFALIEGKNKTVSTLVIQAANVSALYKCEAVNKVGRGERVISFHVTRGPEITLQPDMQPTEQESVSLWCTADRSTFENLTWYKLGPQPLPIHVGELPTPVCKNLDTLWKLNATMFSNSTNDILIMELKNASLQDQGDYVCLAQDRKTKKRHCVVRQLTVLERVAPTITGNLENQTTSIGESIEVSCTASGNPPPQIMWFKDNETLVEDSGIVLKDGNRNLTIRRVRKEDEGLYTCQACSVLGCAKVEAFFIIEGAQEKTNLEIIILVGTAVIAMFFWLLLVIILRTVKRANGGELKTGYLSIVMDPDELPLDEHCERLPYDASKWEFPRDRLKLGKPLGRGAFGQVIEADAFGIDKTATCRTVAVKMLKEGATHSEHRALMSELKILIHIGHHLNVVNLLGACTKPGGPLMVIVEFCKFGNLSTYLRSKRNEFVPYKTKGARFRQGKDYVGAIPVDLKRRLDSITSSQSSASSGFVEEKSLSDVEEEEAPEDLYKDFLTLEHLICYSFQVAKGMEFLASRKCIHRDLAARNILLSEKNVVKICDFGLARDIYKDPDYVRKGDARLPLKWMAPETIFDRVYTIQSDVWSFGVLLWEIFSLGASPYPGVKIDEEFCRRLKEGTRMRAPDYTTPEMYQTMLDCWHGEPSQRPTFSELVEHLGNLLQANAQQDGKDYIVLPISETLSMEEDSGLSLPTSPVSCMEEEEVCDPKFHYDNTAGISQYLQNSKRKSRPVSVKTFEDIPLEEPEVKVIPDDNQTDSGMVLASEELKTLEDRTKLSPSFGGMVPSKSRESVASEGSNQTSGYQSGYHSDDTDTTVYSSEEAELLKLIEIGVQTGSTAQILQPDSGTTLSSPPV

DDR1, sequence (Q08345 19-913): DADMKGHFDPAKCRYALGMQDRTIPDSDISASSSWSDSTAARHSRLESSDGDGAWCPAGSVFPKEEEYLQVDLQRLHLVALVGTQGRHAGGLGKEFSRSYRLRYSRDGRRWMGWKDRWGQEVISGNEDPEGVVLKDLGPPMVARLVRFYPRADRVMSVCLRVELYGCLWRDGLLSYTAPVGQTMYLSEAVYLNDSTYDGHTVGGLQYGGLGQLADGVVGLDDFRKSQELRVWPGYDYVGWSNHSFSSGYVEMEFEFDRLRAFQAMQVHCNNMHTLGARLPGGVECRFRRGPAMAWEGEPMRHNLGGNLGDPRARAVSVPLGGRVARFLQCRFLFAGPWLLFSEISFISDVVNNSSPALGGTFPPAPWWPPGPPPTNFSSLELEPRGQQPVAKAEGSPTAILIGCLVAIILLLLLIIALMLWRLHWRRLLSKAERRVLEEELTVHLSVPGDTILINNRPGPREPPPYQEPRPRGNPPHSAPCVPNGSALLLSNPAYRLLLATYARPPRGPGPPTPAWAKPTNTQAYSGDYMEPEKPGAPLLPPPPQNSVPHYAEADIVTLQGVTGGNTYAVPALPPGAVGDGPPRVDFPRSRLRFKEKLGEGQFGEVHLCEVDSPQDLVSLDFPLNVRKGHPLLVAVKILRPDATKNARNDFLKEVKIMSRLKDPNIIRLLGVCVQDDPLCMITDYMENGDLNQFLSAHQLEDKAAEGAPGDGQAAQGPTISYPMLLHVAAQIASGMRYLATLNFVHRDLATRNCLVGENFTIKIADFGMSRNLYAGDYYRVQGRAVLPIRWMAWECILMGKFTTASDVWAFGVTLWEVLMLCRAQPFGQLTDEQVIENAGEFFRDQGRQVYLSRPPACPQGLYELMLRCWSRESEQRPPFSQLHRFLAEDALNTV
FMS, sequence (P07333 20-972): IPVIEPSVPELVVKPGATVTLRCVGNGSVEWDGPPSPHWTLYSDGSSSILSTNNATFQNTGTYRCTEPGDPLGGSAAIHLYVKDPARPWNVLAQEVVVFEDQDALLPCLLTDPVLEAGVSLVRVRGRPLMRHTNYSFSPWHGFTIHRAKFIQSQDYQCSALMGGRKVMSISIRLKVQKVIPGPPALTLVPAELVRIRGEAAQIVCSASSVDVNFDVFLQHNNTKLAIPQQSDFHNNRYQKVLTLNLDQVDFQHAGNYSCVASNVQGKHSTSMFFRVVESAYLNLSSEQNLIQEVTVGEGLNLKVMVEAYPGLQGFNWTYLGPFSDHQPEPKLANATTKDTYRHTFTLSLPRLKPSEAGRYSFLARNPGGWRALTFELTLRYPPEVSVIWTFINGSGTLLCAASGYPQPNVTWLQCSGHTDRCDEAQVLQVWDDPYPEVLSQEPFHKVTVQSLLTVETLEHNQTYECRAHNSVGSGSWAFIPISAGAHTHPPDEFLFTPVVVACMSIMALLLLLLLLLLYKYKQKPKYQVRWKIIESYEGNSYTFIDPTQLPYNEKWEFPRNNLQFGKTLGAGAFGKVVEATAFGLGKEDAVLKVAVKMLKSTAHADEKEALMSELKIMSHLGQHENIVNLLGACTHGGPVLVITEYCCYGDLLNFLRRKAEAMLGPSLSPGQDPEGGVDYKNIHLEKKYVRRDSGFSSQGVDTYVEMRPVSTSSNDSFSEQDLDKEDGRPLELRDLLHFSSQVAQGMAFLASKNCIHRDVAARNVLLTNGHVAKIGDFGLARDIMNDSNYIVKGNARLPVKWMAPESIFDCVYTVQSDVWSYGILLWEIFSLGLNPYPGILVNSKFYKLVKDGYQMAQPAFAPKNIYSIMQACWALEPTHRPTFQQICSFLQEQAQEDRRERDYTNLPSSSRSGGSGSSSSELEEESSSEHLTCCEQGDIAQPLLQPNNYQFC
c-MET, sequence (P08581 25-1390): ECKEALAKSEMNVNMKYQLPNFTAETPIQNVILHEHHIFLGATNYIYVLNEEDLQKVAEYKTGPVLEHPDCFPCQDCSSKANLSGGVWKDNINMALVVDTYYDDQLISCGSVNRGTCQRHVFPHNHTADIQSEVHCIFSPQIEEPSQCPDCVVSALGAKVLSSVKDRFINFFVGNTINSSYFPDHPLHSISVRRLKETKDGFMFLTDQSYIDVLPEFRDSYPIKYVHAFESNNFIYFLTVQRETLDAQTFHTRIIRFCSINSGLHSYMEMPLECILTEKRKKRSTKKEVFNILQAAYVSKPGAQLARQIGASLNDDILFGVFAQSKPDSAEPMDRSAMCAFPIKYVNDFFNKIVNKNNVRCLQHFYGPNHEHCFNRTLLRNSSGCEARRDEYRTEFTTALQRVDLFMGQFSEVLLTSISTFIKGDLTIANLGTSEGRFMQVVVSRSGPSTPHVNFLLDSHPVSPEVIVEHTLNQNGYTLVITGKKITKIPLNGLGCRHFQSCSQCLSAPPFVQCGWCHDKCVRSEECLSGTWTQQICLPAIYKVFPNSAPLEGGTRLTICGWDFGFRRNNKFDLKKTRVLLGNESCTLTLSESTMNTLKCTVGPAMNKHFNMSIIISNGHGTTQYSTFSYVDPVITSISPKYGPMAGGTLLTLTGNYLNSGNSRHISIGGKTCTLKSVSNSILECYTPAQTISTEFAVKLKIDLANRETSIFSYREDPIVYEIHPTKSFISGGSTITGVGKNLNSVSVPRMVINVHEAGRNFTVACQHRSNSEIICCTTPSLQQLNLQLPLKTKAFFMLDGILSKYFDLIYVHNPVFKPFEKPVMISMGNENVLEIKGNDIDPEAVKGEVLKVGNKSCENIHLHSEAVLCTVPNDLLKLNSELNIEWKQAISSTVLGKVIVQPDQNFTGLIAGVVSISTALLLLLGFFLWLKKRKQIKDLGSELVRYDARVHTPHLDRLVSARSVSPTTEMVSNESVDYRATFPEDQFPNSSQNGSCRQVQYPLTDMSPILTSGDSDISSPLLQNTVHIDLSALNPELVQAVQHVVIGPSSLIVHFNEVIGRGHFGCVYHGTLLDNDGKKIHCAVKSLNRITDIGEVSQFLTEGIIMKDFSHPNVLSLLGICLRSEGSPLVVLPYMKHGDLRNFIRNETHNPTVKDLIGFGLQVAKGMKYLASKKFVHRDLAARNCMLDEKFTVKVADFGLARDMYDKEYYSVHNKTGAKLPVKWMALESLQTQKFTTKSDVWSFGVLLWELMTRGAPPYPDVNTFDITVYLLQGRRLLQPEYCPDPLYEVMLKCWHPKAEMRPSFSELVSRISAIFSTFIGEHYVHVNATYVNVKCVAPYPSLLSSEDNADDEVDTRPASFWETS

| SMILES | IC50 (AXL) [nM] | IC50 (FMS) [nM] | IC50 (DDR1) [nM] | IC50 (c-Kit) [nM] | IC50 (c-MER) [nM] | IC50 (c-MET) [nM] | IC50 (EPHA2) [nM] | IC50 (LOK/STK10) [nM] | IC50 (TYRO3/SKY) [nM] | IC50 (KDR/VEGFR2) [nM] |
| --- | --- | --- | --- | --- | --- | --- | --- | --- | --- | --- |
| COc1cc2c(Oc3ccc(NC(=O)C4(C(=O)Nc5ccc(F)cc5)CC4)cc3)ccnc2cc1OC(=O)N1C[C@@H]2C[C@H]1CN2C [Compound 2-7] | < 100 | < 100 | < 100 | < 100 | < 100 | < 100 | < 100 | 100 to 1000 | 100 to 1000 | 100 to 1000 |
| COc1cc2c(Oc3ccc(NC(=O)C4(C(=O)Nc5ccc(F)cc5)CC4)cc3F)ccnc2cc1OC(=O)N1CCN(C)C[C@H]1C [Compound 3-5, 4-(2-fluoro-4-(1-((4-fluorophenyl)carbamoyl)cyclopropane-1-carboxamido)phenoxy)-6-methoxyquinolin-7-yl (R)-2,4-dimethylpiperazine-1-carboxylate] | < 100 | 100 to 1000 | < 100 | < 100 | < 100 | < 100 | < 100 | 100 to 1000 | 100 to 1000 | < 100 |
| COc1cc2c(Oc3ccc(NC(=O)C4(C(=O)Nc5ccc(F)cc5)CC4)cc3F)ccnc2cc1OC(=O)N1CCN(C)C[C@@H]1C [Compound 3-6] | < 100 | 100 to 1000 | < 100 | 100 to 1000 | < 100 | < 100 | < 100 | 100 to 1000 | 100 to 1000 | 100 to 1000 |
| COc1cc2nccc(Oc3ccc(NC(=O)C4(C(=O)Nc5ccc(F)cc5)CC4)cc3)c2cc1OC(=O)N1CCN(C)CC1 [Compound 5-10] | < 100 | < 100 | < 100 | < 100 | < 100 | < 100 | < 100 | 100 to 1000 | < 100 | < 100 |
| COc1cc2c(Oc3ccc(NC(=O)C4(C(=O)Nc5ccc(F)cc5)CC4)cc3)ccnc2cc1OC(=O)N1[C@H](C)CNC[C@@H]1C [Compound 6-2] | < 100 | 100 to 1000 | < 100 | < 100 | 100 to 1000 | 100 to 1000 | 100 to 1000 | 100 to 1000 | 100 to 1000 | 100 to 1000 |
| COc1cc2c(Oc3ccc(NC(=O)C4(C(=O)Nc5ccc(F)cc5)CC4)cc3)ccnc2cc1OC(=O)N1[C@H](C)CN(C)C[C@@H]1C [Compound 6-3] | < 100 | 100 to 1000 | < 100 | < 100 | < 100 | 100 to 1000 | 100 to 1000 | 100 to 1000 | 100 to 1000 | 100 to 1000 |
| COc1cc2c(Oc3ccc(NC(=O)C4(C(=O)Nc5ccc(F)cc5)CC4)cc3)ccnc2cc1OC(=O)N1CCNC[C@H]1C [Compound 6-4] | < 100 | < 100 | < 100 | < 100 | < 100 | < 100 | 100 to 1000 | 100 to 1000 | 100 to 1000 | 100 to 1000 |
| COc1cc2c(Oc3ccc(NC(=O)C4(C(=O)Nc5ccc(F)cc5)CC4)cc3)ccnc2cc1OC(=O)N1CCNCC1(C)C [Compound 6-5] | < 100 | 100 to 1000 | < 100 | < 100 | < 100 | < 100 | 100 to 1000 | 100 to 1000 | 100 to 1000 | > 1000 |
| COc1cc2c(Oc3ccc(NC(=O)C4(C(=O)Nc5ccc(F)cc5)CC4)cc3)ccnc2cc1OC(=O)N1CCN(C)CC1(C)C [Compound 6-6] | < 100 | 100 to 1000 | < 100 | < 100 | < 100 | 100 to 1000 | 100 to 1000 | 100 to 1000 | 100 to 1000 | 100 to 1000 |
